Key:
[1] = molecular target: human adenosine A2B receptor (Homo sapiens (Human), UniProt P29275); experiment: Adenosine A2B Receptor Cyclic AMP GS Assay; format: cell-based; conditions: A2B_cAMP_EC50 (nM), HEK-293 cells expressing human A2B, agonist NECA 12 nM
How it was run: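 Stably transfected HEK-293 cells were preincubated with compound for 30 min at room temperature, then stimulated with 12 nM NECA for 60 min. cAMP accumulation was read by FRET (665/620 ratio), and EC50 was fitted from percent of control versus log compound concentration.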

Adenosine A2A = Adenosine A2A (Homo sapiens (Human), UniProt P29274); experiment: A2A Tag-Lite HTRF assay; format: binding; conditions: Tag-Lite Adenosine A2A labeled cells, fluorescent ligand 12.5 nM; read-out: A2A_Ki
Adenosine A2A, sequence (P29274 whole entry): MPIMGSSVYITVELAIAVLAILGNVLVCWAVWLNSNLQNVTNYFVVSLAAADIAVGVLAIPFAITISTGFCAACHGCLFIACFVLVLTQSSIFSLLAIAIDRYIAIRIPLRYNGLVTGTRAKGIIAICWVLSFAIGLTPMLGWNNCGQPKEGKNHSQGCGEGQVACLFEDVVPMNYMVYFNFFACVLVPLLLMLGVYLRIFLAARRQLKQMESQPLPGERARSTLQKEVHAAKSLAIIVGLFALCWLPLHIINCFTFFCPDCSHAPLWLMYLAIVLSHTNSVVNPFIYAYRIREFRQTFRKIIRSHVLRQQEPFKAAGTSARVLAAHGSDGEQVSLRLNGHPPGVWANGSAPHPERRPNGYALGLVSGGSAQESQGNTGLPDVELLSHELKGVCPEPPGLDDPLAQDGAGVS
Excerpt: Example C. A2A Tag-Lite® HTRF Assay

human adenosine A2B receptor, sequence (P29275 whole entry): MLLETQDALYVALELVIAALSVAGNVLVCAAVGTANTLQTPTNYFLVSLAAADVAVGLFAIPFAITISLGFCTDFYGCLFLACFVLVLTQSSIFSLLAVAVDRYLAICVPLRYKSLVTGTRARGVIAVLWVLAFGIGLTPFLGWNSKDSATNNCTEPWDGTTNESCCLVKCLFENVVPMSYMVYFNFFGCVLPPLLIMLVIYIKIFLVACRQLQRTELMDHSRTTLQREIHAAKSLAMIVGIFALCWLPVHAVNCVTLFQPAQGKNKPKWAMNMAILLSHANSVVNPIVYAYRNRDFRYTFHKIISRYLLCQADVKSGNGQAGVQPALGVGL

Row | Compound | EC50 [1] [nM] | Ki (Adenosine A2A) [nM]
1 | N#Cc1cccc(-c2nc(N)c3nc(Cc4c(F)cccc4CNCC(N)=O)nn3c2-c2ccncn2)c1 [Example 69, 2-((2-((8-amino-6-(3-cyanophenyl)-5-(pyrimidin-4-yl)-[1,2,4]triazolo[1,5-a]pyrazin-2-yl)methyl)-3-fluorobenzyl)amino)acetamide] | < 10 | < 10
2 | N#Cc1cccc(-c2nc(N)c3nc(Cc4c(F)cccc4CN4CCNC(=O)C4)nn3c2-c2ccncn2)c1 [Example 70, 3-(8-amino-2-(2-fluoro-6-((3-oxopiperazin-1-yl)methyl)benzyl)-5-(pyrimidin-4-yl)-[1,2,4]triazolo[1,5-a]pyrazin-6-yl)benzonitrile] | 10 to 100 | < 10
3 | N#Cc1cccc(-c2nc(N)c3nc(Cc4c(F)cccc4CN[C@H]4C[C@@H](C(=O)O)C4)nn3c2-c2ccncn2)c1 [Example 71, (1S,3S)-3-((2-((8-amino-6-(3-cyanophenyl)-5-(pyrimidin-4-yl)-[1,2,4]triazolo[1,5-a]pyrazin-2-yl)methyl)-3-fluorobenzyl)amino)cyclobutane-1-carboxylic Acid] | < 10 | < 10
4 | CN1CCC(NCc2cccc(F)c2Cc2nc3c(N)nc(-c4cccc(C#N)c4)c(-c4ccncn4)n3n2)C1=O (stereo not shown) [Example 72, 3-(8-amino-2-(2-fluoro-6-(((1-methyl-2-oxopyrrolidin-3-yl)amino)methyl)benzyl)-5-(pyrimidin-4-yl)-[1,2,4]triazolo[1,5-a]pyrazin-6-yl)benzonitrile] | < 10 | < 10
5 | N#Cc1cccc(-c2nc(N)c3nc(Cc4c(F)cccc4CN4CC(C#N)C4)nn3c2-c2ccncn2)c1 [Example 73, 1-(2-((8-amino-6-(3-cyanophenyl)-5-(pyrimidin-4-yl)-[1,2,4]triazolo[1,5-a]pyrazin-2-yl)methyl)-3-fluorobenzyl)azetidine-3-carbonitrile] | < 10 | < 10
6 | Cn1ncc(NCc2cccc(F)c2Cc2nc3c(N)nc(-c4cccc(C#N)c4)c(-c4ccncn4)n3n2)n1 [Example 74, 3-(8-amino-2-(2-fluoro-6-(((2-methyl-2H-1,2,3-triazol-4-yl)amino)methyl)benzyl)-5-(pyrimidin-4-yl)-[1,2,4]triazolo[1,5-a]pyrazin-6-yl)benzonitrile] | < 10 | < 10
7 | N#Cc1cccc(-c2nc(N)c3nc(Cc4ccccc4CN[C@H]4CCNC4=O)nn3c2-c2ccncn2)c1 [Example 75, (S)-3-(8-amino-2-(2-(((2-oxopyrrolidin-3-yl)amino)methyl)benzyl)-5-(pyrimidin-4-yl)-[1,2,4]triazolo[1,5-a]pyrazin-6-yl)benzonitrile] | < 10 | < 10
8 | Cc1ncoc1-c1c(-c2cccc(C#N)c2)nc(N)c2nc(Cc3c(F)cccc3CN3CC[C@@](C)(C(=O)O)C3)nn12 [Example 76, (R)-1-(2-((8-amino-6-(3-cyanophenyl)-5-(4-methyloxazol-5-yl)-[1,2,4]triazolo[1,5-a]pyrazin-2-yl)methyl)-3-fluorobenzyl)-3-methylpyrrolidine-3-carboxylic Acid] | 10 to 100 | < 10
9 | Cc1ncoc1-c1c(-c2cccc(C#N)c2)nc(N)c2nc(C(N)c3c(F)cccc3F)nn12 (stereo not shown) [Example 77, 3-(8-amino-2-(amino(2,6-difluorophenyl)methyl)-5-(4-methyloxazol-5-yl)-[1,2,4]triazolo[1,5-a]pyrazin-6-yl)benzonitrile] | < 10 | < 10
10 | CNC(c1nc2c(N)nc(-c3cccc(C#N)c3)c(-c3ocnc3C)n2n1)c1c(F)cccc1F (stereo not shown) [Example 78, 3-(8-amino-2-((2,6-difluorophenyl)(methylamino)methyl)-5-(4-methyloxazol-5-yl)-[1,2,4]triazolo[1,5-a]pyrazin-6-yl)benzonitrile] | < 10 | < 10
11 | Cc1ncoc1-c1c(-c2cccc(C#N)c2)nc(N)c2nc(C(NCCO)c3c(F)cccc3F)nn12 (stereo not shown) [Example 79, 3-(8-amino-2-((2,6-difluorophenyl)((2-hydroxyethyl)amino)methyl)-5-(4-methyloxazol-5-yl)-[1,2,4]triazolo[1,5-a]pyrazin-6-yl)benzonitrile] | < 10 | < 10
12 | Cc1ncoc1-c1c(-c2cccc(C#N)c2)nc(N)c2nc(C(N)c3ccccc3F)nn12 (stereo not shown) [Example 80, 3-(8-amino-2-(amino(2-fluorophenyl)methyl)-5-(4-methyloxazol-5-yl)-[1,2,4]triazolo[1,5-a]pyrazin-6-yl)benzonitrile] | < 10 | < 10
13 | Cn1nc(-c2c(-c3cccc(C#N)c3)nc(N)c3nc(C(N)c4c(F)cccc4F)nn23)ccc1=O (stereo not shown) [Example 81, 3-(8-amino-2-(amino(2,6-difluorophenyl)methyl)-5-(1-methyl-6-oxo-1,6-dihydropyridazin-3-yl)-[1,2,4]triazolo[1,5-a]pyrazin-6-yl)benzonitrile] | < 10 | < 10
14 | N#Cc1cccc(-c2nc(N)c3nc(Cc4ncccc4-c4cnco4)nn3c2-c2ccncn2)c1 [Example 82, 3-(8-amino-2-((3-(oxazol-5-yl)pyridin-2-yl)methyl)-5-(pyrimidin-4-yl)-[1,2,4]triazolo[1,5-a]pyrazin-6-yl)benzonitrile] | < 10 | < 10
15 | Cn1cc(-c2cccc(F)c2Cc2nc3c(N)nc(-c4cccc(C#N)c4F)cn3n2)cn1 [Example 83, 3-(8-amino-2-(2-fluoro-6-(1-methyl-1H-pyrazol-4-yl)benzyl)-[1,2,4]triazolo[1,5-a]pyrazin-6-yl)-2-fluorobenzonitrile] | < 10 | < 10
16 | CN1CC[C@H](NCc2cccc(F)c2Cc2nc3c(N)nc(-c4cccc(C#N)c4F)cn3n2)C1=O [Example 84, (S)-3-(8-amino-2-(2-fluoro-6-(((1-methyl-2-oxopyrrolidin-3-yl)amino)methyl)benzyl)-[1,2,4]triazolo[1,5-a]pyrazin-6-yl)-2-fluorobenzonitrile] | < 10 | < 10
17 | CN1CCC2(CN(Cc3cccc(F)c3Cc3nc4c(N)nc(-c5cccc(C#N)c5F)cn4n3)C2)C1=O [Example 85, 3-(8-amino-2-(2-fluoro-6-((6-methyl-5-oxo-2,6-diazaspiro[3.4]octan-2-yl)methyl)benzyl)-[1,2,4]triazolo[1,5-a]pyrazin-6-yl)-2-fluorobenzonitrile] | 10 to 100 | < 10
18 | Cc1ncoc1-c1c(-c2cccc(C#N)c2F)nc(N)c2nc(Cc3ccccn3)nn12 [Example 86, 3-(8-amino-5-(4-methyloxazol-5-yl)-2-(pyridin-2-ylmethyl)-[1,2,4]triazolo[1,5-a]pyrazin-6-yl)-2-fluorobenzonitrile] | < 10 | < 10
19 | Cc1nc(C(O)C(F)F)c(-c2c(-c3cccc(C#N)c3F)nc(N)c3nc(Cc4ccccn4)nn23)o1 (stereo not shown) [Example 87, 3-(8-amino-5-(4-(2,2-difluoro-1-hydroxyethyl)-2-methyloxazol-5-yl)-2-(pyridin-2-ylmethyl)-[1,2,4]triazolo[1,5-a]pyrazin-6-yl)-2-fluorobenzonitrile] | 10 to 100 | < 10
20 | Cc1nc(C(O)C(F)(F)F)c(-c2c(-c3cccc(C#N)c3F)nc(N)c3nc(Cc4ccccn4)nn23)o1 (stereo not shown) [Example 88, 3-(8-amino-5-(2-methyl-4-(2,2,2-trifluoro-1-hydroxyethyl)oxazol-5-yl)-2-(pyridin-2-ylmethyl)-[1,2,4]triazolo[1,5-a]pyrazin-6-yl)-2-fluorobenzonitrile] | 10 to 100 | < 10
21 | Cn1cc(-c2c(-c3cccc(C#N)c3F)nc(N)c3nc(Cc4ccccn4)nn23)ccc1=O [Example 89, 3-(8-amino-5-(1-methyl-6-oxo-1,6-dihydropyridin-3-yl)-2-(pyridin-2-ylmethyl)-[1,2,4]triazolo[1,5-a]pyrazin-6-yl)-2-fluorobenzonitrile] | 10 to 100 | < 10
22 | Cn1cnc(S(=O)(=O)N2CCCC2Cc2nc3c(N)nc(-c4cccc(C#N)c4F)cn3n2)c1 (stereo not shown) [Example 90, 3-(8-amino-2-((1-((1-methyl-1H-imidazol-4-yl)sulfonyl)pyrrolidin-2-yl)methyl)-[1,2,4]triazolo[1,5-a]pyrazin-6-yl)-2-fluorobenzonitrile] | 100 to 1000 | < 10
23 | CC(=O)N1CCC(Cc2cccc(F)c2Cc2nc3c(N)nc(-c4cccc(C#N)c4F)cn3n2)CC1 [Example 91, 3-(2-(2-((1-acetylpiperidin-4-yl)methyl)-6-fluorobenzyl)-8-amino-[1,2,4]triazolo[1,5-a]pyrazin-6-yl)-2-fluorobenzonitrile] | 10 to 100 | < 10
24 | N#Cc1cccc(-c2nc(N)c3cc(Cc4c[nH]c5cccnc45)nn3c2-c2ccncn2)c1 [Example 96, 3-(2-((1H-pyrrolo[3,2-b]pyridin-3-yl)methyl)-4-amino-7-(pyrimidin-4-yl)pyrazolo[1,5-a]pyrazin-6-yl)benzonitrile] | 10 to 100 | < 10
25 | Cn1cc(Cn2cc(-c3cccc(F)c3Cc3nc4c(N)nc(-c5cccc(C#N)c5F)cn4n3)cn2)cn1 [Example 99, 3-(8-amino-2-(2-fluoro-6-(1-((1-methyl-1H-pyrazol-4-yl)methyl)-1H-pyrazol-4-yl)benzyl)-[1,2,4]triazolo[1,5-a]pyrazin-6-yl)-2-fluorobenzonitrile] | 10 to 100 | < 10
26 | N#Cc1cccc(-c2cn3nc(Cc4c(F)cccc4-c4cnn(Cc5ccccn5)c4)nc3c(N)n2)c1F [Example 107, 3-(8-amino-2-(2-fluoro-6-(1-(pyridin-2-ylmethyl)-1H-pyrazol-4-yl)benzyl)-[1,2,4]triazolo[1,5-a]pyrazin-6-yl)-2-fluorobenzonitrile] | 10 to 100 | < 10
